The source made the active and inactive calls. The calls are words filed in the database; no cut-off is given here.
Legend:
[1] = target: T1, Heat shock protein HSP90 (Homo sapiens) (UniProt P07900+P08238); assay: Inhibition of HSP90 in human NCI-H1975 cells assessed as downregulation of Her2 expression at 0.05 to 2 uM incubated for 24 hrs by western blot analysis; format: cell-based; details: dose 0.05-2 µM, DDE = dose-dependent effect
[2] = Toxicity in NSG mouse xenografted with human NCI-H1975 cells assessed as change in structure of retina at 25 mg/kg,ip measured after 6 weeks by H and E staining based assay; format: organism-based; details: in vivo, 1008 h
[3] = target: T1, Heat shock protein HSP90 (Homo sapiens); assay: Inhibition of HSP90 in human NCI-H1975 cells assessed as upregulation of HSP70 expression at 2 uM incubated for 24 hrs by western blot analysis; format: cell-based
NCI-H1975 [4] = assay: Antitumor activity against NSG mouse xenografted with human NCI-H1975 cells assessed as reduction on tumor growth at 25 mg/kg,ip measured after 2 weeks; format: functional, organism-based
[5] = target: T1, Heat shock protein HSP90 (Homo sapiens); assay: Inhibition of HSP90 in human NCI-H1975 cells assessed as downregulation of Akt expression at 0.05 to 2 uM incubated for 24 hrs by western blot analysis; format: cell-based; details: dose 0.05-2 µM, DDE = dose-dependent effect
Histone deacetylase 7 = target: T2, Histone deacetylase 7 (Homo sapiens, UniProt Q8WUI4); assay: Inhibition of HDAC7 (unknown origin) using fluorogenic substrate incubated for 30 mins by fluorescence plate reader
T2 sequence (Q8WUI4 whole entry): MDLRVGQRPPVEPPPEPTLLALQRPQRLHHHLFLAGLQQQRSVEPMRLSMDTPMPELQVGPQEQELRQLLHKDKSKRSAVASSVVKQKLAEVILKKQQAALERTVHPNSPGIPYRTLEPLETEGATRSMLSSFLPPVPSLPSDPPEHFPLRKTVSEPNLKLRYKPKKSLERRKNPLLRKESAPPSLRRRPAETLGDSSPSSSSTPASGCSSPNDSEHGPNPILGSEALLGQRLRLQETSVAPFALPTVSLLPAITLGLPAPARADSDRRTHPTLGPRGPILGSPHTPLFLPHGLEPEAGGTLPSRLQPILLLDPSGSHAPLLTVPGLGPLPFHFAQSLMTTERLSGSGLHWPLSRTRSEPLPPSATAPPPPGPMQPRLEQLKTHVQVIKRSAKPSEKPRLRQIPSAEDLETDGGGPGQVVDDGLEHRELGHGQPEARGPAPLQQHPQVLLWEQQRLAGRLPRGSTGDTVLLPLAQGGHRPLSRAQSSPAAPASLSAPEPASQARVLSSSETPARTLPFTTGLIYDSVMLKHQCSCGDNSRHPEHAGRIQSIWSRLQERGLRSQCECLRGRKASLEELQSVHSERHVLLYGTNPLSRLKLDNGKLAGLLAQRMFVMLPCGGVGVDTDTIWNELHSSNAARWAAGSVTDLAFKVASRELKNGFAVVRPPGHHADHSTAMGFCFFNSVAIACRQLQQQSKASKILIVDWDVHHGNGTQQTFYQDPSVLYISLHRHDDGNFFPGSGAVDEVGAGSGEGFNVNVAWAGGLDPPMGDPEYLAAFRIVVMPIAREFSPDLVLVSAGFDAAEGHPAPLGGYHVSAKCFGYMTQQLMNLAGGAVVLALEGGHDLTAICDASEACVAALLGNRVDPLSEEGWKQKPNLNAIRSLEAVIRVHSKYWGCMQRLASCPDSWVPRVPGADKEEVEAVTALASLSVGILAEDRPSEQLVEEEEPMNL

NCI-H1975 [6] = assay: Antitumor activity against NSG mouse xenografted with human NCI-H1975 cells assessed as reduction on tumor growth at 25 mg/kg,ip measured after 6 weeks; format: functional, organism-based
[7] = Toxicity in NSG mouse xenografted with human NCI-H1975 cells assessed as change in structure of retina at 50 mg/kg,ip measured after 6 weeks by H and E staining based assay; format: organism-based; details: in vivo, 1008 h
[8] = Toxicity in NSG mouse xenografted with human NCI-H1975 cells assessed as histological abnormalities in ocular region at 50 mg/kg,ip measured after 6 weeks by H and E staining based assay; format: organism-based; details: in vivo, 1008 h
[9] = target: T1, Heat shock protein HSP90 (Homo sapiens); assay: Inhibition of HSP90 in human NCI-H1975 cells assessed as downregulation of Met expression at 0.05 to 2 uM incubated for 24 hrs by western blot analysis; format: cell-based; details: dose 0.05-2 µM, DDE = dose-dependent effect
NCI-H1975 [10] = assay: Induction of apoptosis in human NCI-H1975 cells assessed as caspase-3 cleavage at 0.05 to 2 uM incubated for 24 hrs by western blot analysis; format: functional, cell-based; details: dose 0.05-2 µM, DDE = dose-dependent effect
NCI-H1975 [11] = assay: Induction of apoptosis in human NCI-H1975 cells assessed as late apoptotic cells at 2 uM incubated for 24 hrs by Annexin-V/propidium iodide staining based flow cytometry analysis; format: functional

In the case of `CC(C)c1cc(C(=O)N(C)Cc2ccc(C(=O)NO)cc2)c(O)cc1O`, the inhibition [1] is reported as “Dde”, the Activity [2] is reported as “Non-Toxic” and the inhibition [3] is reported as “Active”. The Activity (NCI-H1975 [4]) was “Active”, the inhibition [5] was “Dde” and the IC50 (Histone deacetylase 7) was 1690 nM. The Activity (NCI-H1975 [6]) was “Active”, the Activity [7] was “Non-Toxic” and the Activity [8] was “Non-Toxic”. For the same compound, the inhibition [9] was “Dde”, the Activity (NCI-H1975 [10]) was “Dde” and the Activity (NCI-H1975 [11]) was 9.01%.

Reference: ChEMBL document CHEMBL5113492, “Design, synthesis, and biological evalution of bifunctional inhibitors against Hsp90-HDAC6 interplay” (Eur J Med Chem, 2022)
